Test results reported in ChEMBL document CHEMBL1201862, “PubChem BioAssay data set” (2004).
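The compound was tested at five concentrations on cells cultured in 96-well plates, with a 48-hour exposure period. Abbreviation: GI50, concentration required for 50% inhibition of growth.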 Active and inactive are the calls of the source. Rule as the data show it: active = GI50 up to about 1.1 µM and inactive = higher.

Experiments:
Test in all cases: NCI tumour cell line growth inhibition, 48 h
[1] = tested on: Malme-3M
[2] = tested on: M14
[3] = tested on: SNB-75
[4] = tested on: CAKI-1
[5] = tested on: SW-620
[6] = tested on: DU-145
[7] = tested on: A549
[8] = tested on: NCI-H460
[9] = tested on: HCC 2998
[10] = tested on: MDA-MB-435
[11] = tested on: HOP-62
[12] = tested on: PC-3
[13] = tested on: IGROV-1
[14] = tested on: SN12C
[15] = tested on: SF-295
[16] = tested on: HL-60
[17] = tested on: NCI-H23
[18] = tested on: NCI-H522
[19] = tested on: SNB-19
[20] = tested on: MDA-MB-231

Row | SMILES | GI50 [1] | GI50 [2] | GI50 [3] | GI50 [4] | GI50 [5] | GI50 [6] | GI50 [7] | GI50 [8] | GI50 [9] | GI50 [10] | GI50 [11] | GI50 [12] | GI50 [13] | GI50 [14] | GI50 [15] | GI50 [16] | GI50 [17] | GI50 [18] | GI50 [19] | GI50 [20]
1 | CCOC(=O)c1c(CN2CCNCC2)nc2ccc(Cl)cc2c1-c1ccccc1 | 1.94 µM (inactive) | 1.81 µM (inactive) | 2.37 µM (inactive) | 2.47 µM (inactive) | 2.03 µM (inactive) | 16.2 µM (inactive) | 5.31 µM (inactive) | 2.48 µM (inactive) | 1.6 µM (inactive) | 2.31 µM (inactive) | 6.95 µM (inactive) | 2.54 µM (inactive) | 5 µM (inactive) | 4.92 µM (inactive) | 2.24 µM (inactive) | 1.98 µM (inactive) | 10.4 µM (inactive) | 4.38 µM (inactive) | 12.8 µM (inactive) | 
2 | CCOP(=O)(OCC)c1ccc(=O)[nH]c1-c1cccs1 | > 100 µM (inactive) | > 100 µM (inactive) | > 100 µM (inactive) | > 100 µM (inactive) | > 100 µM (inactive) | > 100 µM (inactive) | > 100 µM (inactive) | > 100 µM (inactive) | > 100 µM (inactive) | > 100 µM (inactive) | > 100 µM (inactive) | > 100 µM (inactive) | > 100 µM (inactive) | > 100 µM (inactive) | > 100 µM (inactive) |  | > 100 µM (inactive) | > 100 µM (inactive) | > 100 µM (inactive) | 
3 | CC(=O)Oc1ccc2cc(Oc3ccccc3)c(=O)oc2c1 | > 100 µM (inactive) | > 100 µM (inactive) | 90.6 µM (inactive) | > 100 µM (inactive) | > 100 µM (inactive) | > 100 µM (inactive) | 48.2 µM (inactive) | 90.8 µM (inactive) | > 100 µM (inactive) |  | 89.1 µM (inactive) | > 100 µM (inactive) | > 100 µM (inactive) | > 100 µM (inactive) | > 100 µM (inactive) | > 100 µM (inactive) | > 100 µM (inactive) | 30.5 µM (inactive) | 93.5 µM (inactive) | > 100 µM (inactive)
4 | CCOC(=O)C1C(c2ccccc2)C2(C#N)C(=N)OC1(C)C2(C#N)C#N (stereo not given) | 20.5 µM (inactive) | 40.6 µM (inactive) | 1.51 µM (inactive) | 6.61 µM (inactive) | 44.8 µM (inactive) | 30.6 µM (inactive) | > 100 µM (inactive) |  | 13.8 µM (inactive) | 22.4 µM (inactive) |  | 25.6 µM (inactive) | 18.5 µM (inactive) | > 10 µM (inactive) | 36.2 µM (inactive) | 20.7 µM (inactive) | 17.5 µM (inactive) |  | 40.6 µM (inactive) | 10.9 µM (inactive)
5 | CN(C)C1(N(C)C)Oc2c(c(=O)n(C)c(=O)n2C)C(c2ccc(Br)cc2)C1(F)F (stereo not given) |  | > 100 µM (inactive) | > 100 µM (inactive) | > 100 µM (inactive) | > 100 µM (inactive) | > 100 µM (inactive) | > 100 µM (inactive) | > 100 µM (inactive) | > 100 µM (inactive) | > 100 µM (inactive) | > 100 µM (inactive) | > 100 µM (inactive) |  |  | > 100 µM (inactive) |  | > 100 µM (inactive) |  | > 100 µM (inactive) | > 100 µM (inactive)
6 | Cn1nc2ccc3nccc(N4CCN(CCO)CC4)c3c2n1 | > 100 µM (inactive) | > 100 µM (inactive) | > 100 µM (inactive) |  | 59.4 µM (inactive) | > 100 µM (inactive) | > 100 µM (inactive) | > 100 µM (inactive) | > 100 µM (inactive) | > 100 µM (inactive) | > 100 µM (inactive) | 19.3 µM (inactive) | > 100 µM (inactive) | > 100 µM (inactive) | > 100 µM (inactive) |  | > 100 µM (inactive) | > 100 µM (inactive) | > 100 µM (inactive) | > 100 µM (inactive)
7 | Cc1cc(C#N)c[n+](C)c1 | > 100 µM (inactive) | > 100 µM (inactive) | > 100 µM (inactive) | > 100 µM (inactive) | > 100 µM (inactive) | > 100 µM (inactive) | > 100 µM (inactive) | > 100 µM (inactive) | > 100 µM (inactive) |  | > 100 µM (inactive) | > 100 µM (inactive) | > 100 µM (inactive) | > 100 µM (inactive) | > 100 µM (inactive) | > 100 µM (inactive) | > 100 µM (inactive) | > 100 µM (inactive) | > 100 µM (inactive) | > 100 µM (inactive)
8 | CCOC(=O)NC(Nc1ccc(S(=O)(=O)Nc2nc(C)cc(C)n2)cc1)(C(=O)OCC)C(F)(F)F (stereo not given) | > 100 µM (inactive) | > 100 µM (inactive) | > 100 µM (inactive) | > 100 µM (inactive) | > 100 µM (inactive) | > 100 µM (inactive) | > 100 µM (inactive) | > 100 µM (inactive) | > 100 µM (inactive) | > 100 µM (inactive) | > 100 µM (inactive) | > 100 µM (inactive) | > 100 µM (inactive) | > 100 µM (inactive) | > 100 µM (inactive) | > 100 µM (inactive) | > 100 µM (inactive) |  | > 100 µM (inactive) | > 100 µM (inactive)
9 | C1=C[C@]2(CCC13OCCO3)COc1ccccc12 |  | 26.6 µM (inactive) | 42.3 µM (inactive) | > 100 µM (inactive) | 54.8 µM (inactive) | 32.3 µM (inactive) | > 100 µM (inactive) | 31.7 µM (inactive) | 43.6 µM (inactive) | 31.9 µM (inactive) | 41.2 µM (inactive) | 35.8 µM (inactive) |  | 74.8 µM (inactive) | 43.1 µM (inactive) | 6.81 µM (inactive) | 26.5 µM (inactive) |  | 38 µM (inactive) | 75.9 µM (inactive)
10 | O=C(O)CCC(NC(=O)c1ccc(Nc2nc3ccccc3nc2C(=O)O)cc1)C(=O)O (stereo not given) | > 100 µM (inactive) | > 100 µM (inactive) | > 100 µM (inactive) | > 100 µM (inactive) |  | > 100 µM (inactive) | > 100 µM (inactive) |  | > 100 µM (inactive) | > 100 µM (inactive) | > 100 µM (inactive) |  | > 100 µM (inactive) | > 100 µM (inactive) | > 100 µM (inactive) | > 100 µM (inactive) | > 100 µM (inactive) | > 100 µM (inactive) | > 100 µM (inactive) | > 100 µM (inactive)
11 | COc1cccc(/N=N/C(=N\NC(=O)c2ccc(C)cc2)c2ccc(N(CCC#N)CCC#N)cc2C)c1 | > 100 µM (inactive) | > 100 µM (inactive) | 53.1 µM (inactive) | > 100 µM (inactive) | > 100 µM (inactive) | > 100 µM (inactive) | > 100 µM (inactive) | > 100 µM (inactive) | > 100 µM (inactive) | 64.3 µM (inactive) | 72.8 µM (inactive) | 64.6 µM (inactive) | > 100 µM (inactive) | > 100 µM (inactive) | 85.7 µM (inactive) |  | > 100 µM (inactive) |  | > 100 µM (inactive) | 63.1 µM (inactive)
12 | C=C1CC(C)(c2cccc(Nc3nc4ccccc4c4occc34)c2)OC1=O (stereo not given) | 17.6 µM (inactive) | 2.84 µM (inactive) | 5.58 µM (inactive) | 3.98 µM (inactive) |  | 5.6 µM (inactive) | 3.92 µM (inactive) | 15.6 µM (inactive) | 2.43 µM (inactive) | 5.11 µM (inactive) | 12.2 µM (inactive) | 5.52 µM (inactive) |  | 2.83 µM (inactive) | 16.8 µM (inactive) | 2.27 µM (inactive) |  |  | 17.2 µM (inactive) | 5.11 µM (inactive)
13 | O=[N+]([O-])c1ccc2nc3ccccc3cc2c1 | 2.9 µM (inactive) | 3.33 µM (inactive) | 3.7 µM (inactive) | 0.0149 µM (active) | 1.85 µM (inactive) | 2.82 µM (inactive) | 2.5 µM (inactive) | 3.03 µM (inactive) | 1.63 µM (inactive) | 1.46 µM (inactive) | 2.26 µM (inactive) | 1.95 µM (inactive) | 1.91 µM (inactive) | 1.96 µM (inactive) |  |  | 2.28 µM (inactive) | 2.81 µM (inactive) | 2.99 µM (inactive) | 2.55 µM (inactive)
14 | CC(NC(=O)OCc1ccccc1)NC(=O)C(CC(=O)OC(C)(C)C)NC(=O)OC(C)(C)C (stereo not given) | > 100 µM (inactive) | > 100 µM (inactive) | > 100 µM (inactive) | > 100 µM (inactive) | > 100 µM (inactive) | > 100 µM (inactive) | > 100 µM (inactive) | > 100 µM (inactive) |  | > 100 µM (inactive) | > 100 µM (inactive) | > 100 µM (inactive) | > 100 µM (inactive) | > 100 µM (inactive) | > 100 µM (inactive) |  | > 100 µM (inactive) | > 100 µM (inactive) | > 100 µM (inactive) | > 100 µM (inactive)
15 | c1ccc2c(c1)OC(N1CCCC1)c1cnc(N3CCCC3)nc1-2 (stereo not given) | 40.7 µM (inactive) | 50.9 µM (inactive) | 15.2 µM (inactive) | 20.9 µM (inactive) | 36.3 µM (inactive) | 49.9 µM (inactive) | 43.4 µM (inactive) | 36.7 µM (inactive) |  | 49.8 µM (inactive) | 68.2 µM (inactive) | 28.7 µM (inactive) |  | 45.2 µM (inactive) | 30.4 µM (inactive) | 27.4 µM (inactive) | 37 µM (inactive) |  | 92.5 µM (inactive) | 41.8 µM (inactive)
